According to patent publication US20260132123A1, “ABAD INHIBITOR COMPOUNDS” (UNIVERSITY COURT OF THE UNIVERSITY OF ST ANDREWS, priority 2021, published 2026):

Assays:
17β-HSD10 = biological target: T1, 17β-HSD10 (Homo sapiens, UniProt Q99714); test: 17β-HSD10 (ABAD) enzyme inhibition assay, NADH oxidation read at 340 nm (primary screen and dose response); format: biochemical; conditions: for EC50 / Max. Effect (%) / Hill Slope / Max. Fit / Min. Fit: recombinant 17βHSD10 enzyme assay; for Hill Slope / Max. Fit / Min. Fit: curve fit
T1 construct: Histev (histidine tag with TEV site) (N, cleaved yes); made in house; host or cells: E. coli BL21-CodonPlus
T1 sequence (Q99714 1-261): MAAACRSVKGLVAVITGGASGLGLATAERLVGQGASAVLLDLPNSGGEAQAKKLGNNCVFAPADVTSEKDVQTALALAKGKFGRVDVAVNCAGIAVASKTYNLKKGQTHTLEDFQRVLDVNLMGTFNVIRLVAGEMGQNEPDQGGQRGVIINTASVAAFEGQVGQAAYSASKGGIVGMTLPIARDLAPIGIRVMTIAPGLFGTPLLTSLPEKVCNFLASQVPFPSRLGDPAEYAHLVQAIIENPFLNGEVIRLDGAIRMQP
In short: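 Tag-cleaved recombinant human 17β-HSD10 (2.5 nM) preincubated 15 min with compound in Tris pH 7.4, NaCl, DTT, Tween, BSA (catalase in some runs), then 100 μM acetoacetyl-CoA and NADH added. NADH oxidation by A340 fall: 35 min endpoint for screening at 10 μM; continuous 45 min for dose response.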

mtsABAD HEK293 cells [1] = test: Lactate dehydrogenase (LDH) cytotoxicity assay; format: cell-based, human; conditions: 50 μM compound
Description: Cell cytotoxicity was assessed via the measurement of lactate dehydrogenase leakage into the culture medium using a commercially available kit from Pierce (Thermo Scientific cat no. 88953). This was carried out in accordance with the kit guidelines, with the activity of Lactate Dehydrogenase (LDH) being calculated from the change in absorbance at […] as NADH is reduced. HEK293 cells overexpressing mts17β-HSD10 were cultured in phenol-red free media (10% fetal bovine serum (FBS), 1 mM sodium pyruvate, 100 units penicillin, 0.1 mg/mL streptomycin and 2 mM L-glutamine) and seeded at a density of 10,000 cells per well (100 μL, 96 well plates). […] Treated cells were incubated at 37° C. and CO2 (5%) for 24 hours before the LDH assay was performed as per the manufacturer's instructions. Spontaneous control (water) and maximum control (lysis buffer) used in accordance with the kit guide. Absorbance was measured at 490 nm and 680 nm using a SpectraMaxM2e spectrophotometer. The measured LDH activity was used to calculate % cytotoxicity using the following equation: […]

mtsABAD HEK293 cells [2] = test: Alamar Blue cell viability assay; format: cell-based, human; conditions: 50 μM compound
Description: Cell viability was assessed via fluorescence change using the commercially available Alamar Blue from ThermoFisher. HEK293 cells overexpressing mts17β-HSD10 were cultured in phenol-red free media (10% FBS, 1 mM sodium pyruvate, 100 units penicillin, 0.1 mg/mL streptomycin and 2 mM L-glutamine) and seeded at a density of 10,000 cells per well (100 μL, 96 well plates). […] Treated cells were then incubated at 37° C. and CO2 (5%) for 24 hours before the assay was performed as per the manufacturer's instructions. Fluorescence was measured at 530 nm excitation and 590 nm emission using a SpectraMaxM2e spectrophotometer.

SMILES	EC50 (17β-HSD10) [µM]	Max. Effect (%) (17β-HSD10)	Hill Slope (17β-HSD10)	Max. Fit (17β-HSD10)	Min. Fit (17β-HSD10)	LDH % Toxicity (50 μM Dose) (mtsABAD HEK293 cells [1]) [%]	Alamar Blue % Viability (50 μM Dose) (mtsABAD HEK293 cells [2]) [%]	17β-HSD10 / ABAD activity in words (SAR discussion) (17β-HSD10)	LDH % Toxicity (50 μM Dose) (mtsABAD HEK293 cells [1]; listed as ESC1002205-01) [%]	Alamar Blue % Viability (50 μM Dose) (mtsABAD HEK293 cells [2]; listed as ESC1002205-01) [%]	IC50 (17β-HSD10; 17β-HSD10 dose response / inhibition assay, read-out: 17β-HSD10 pIC50 (converted)) [µM]	figure in brackets after the pIC50 bound (17β-HSD10; Table 3, equals Max. Effect (%) of Table 6)	fold improvement in activity / potency (17β-HSD10; relative to the parent compound of the sentence)
Cc1ccsc1C(=O)N1CCC[C@H]1c1ccccc1-c1cnn(C2CCOCC2)c1 [ESC1002341]	1.62	91	0.87	102	−6	5.13	96.72						
CC(C)CN(C(=O)C1CCCCC1)c1cccc(N(C)Cc2cnc[nH]2)c1 [ESC1002166, N-[3-[1H-imidazol-5-ylmethyl(methyl)amino]phenyl]-N-isobutyl-cyclohexanecarboxamide]	0.955	99	0.93	104	0	4.554	82.237	less potent					
CC(C)CN(C(=O)c1ccccc1F)c1cccc(N(C)Cc2ccn[nH]2)c1 [ESC1002205]		96	1.1	97	0				5.840	95.933			
Cc1ccsc1C(=O)N1CCC[C@H]1c1ccccc1-c1ccc(Cl)cc1Cl [ESC1002340]	0.631	105	1.6	96	−7	5.33	94.26						
CC(C)CN(C(=O)CCc1ccccc1)c1cccc(N(C)Cc2cnc[nH]2)c1 [ESC1002168, N-[3-[1H-imidazol-5-ylmethyl(methyl)amino]phenyl]-N-isobutyl-3-phenyl-propanamide]	8.91	72	1.1	100	0	4.285	82.648						
CC(C)OCCN(C(=O)c1ccccc1F)c1cccc(N(C)Cc2c[nH]cn2)c1 [ESC1002267]	6.03	76	0.9	103	−4	4.81	89.57						
Cc1ccsc1C(=O)N1CCC[C@@H]1c1ccccc1-c1cn[nH]c1 [ESC1002092]	1.23	93	1	98	0	4.240	80.606						
CC(C)CN(C(=O)c1ccccc1F)c1cccc(N(C)Cc2cccnc2)c1 [ESC1002210]	6.17	72	1.4	82	0	5.509	93.200						
COc1ccc(-c2ccccc2[C@@H]2CCCN2C(=O)c2sccc2C)cc1 (single isomer, unassigned) [ESC1002332]	0.166	99	1	100	0	3.52	87.68						
Cc1ccsc1C(=O)N1CCC[C@H]1c1ccccc1-c1ccc(C(F)(F)F)cc1 [ESC1002314]	0.575	99	1.2	97	0	5.98	87.10						
COc1ccc(-c2ccccc2[C@@H]2CCCN2C(=O)c2sccc2C)cn1 (single isomer, unassigned) [ESC1002161]	> 20	7				4.783	92.566				> 20	7	
COc1ccc(-c2ccccc2[C@H]2CCCN2C(=O)c2sccc2C)cc1 [ESC1002089]			1.1	98	0	5.398	83.064						under 3 fold
Cc1ccsc1C(=O)N1CCC[C@H]1c1ccccc1-c1ccc(Cl)c(C(F)(F)F)c1 [ESC1002327]	1.45	89	0.84	100	−7	4.61	90.36						
CN(Cc1c[nH]cn1)c1cccc(N(CC2CC2)C(=O)c2ccccc2F)c1 [ESC1002342, N-(cyclopropylmethyl)-2-fluoro-N-[3-[1H-imidazol-4-ylmethyl(methyl)amino]phenyl]benzamide]	0.708	99	1.6	95	−1	4.76	85.04						
Cc1ccsc1C(=O)N1CCC[C@H]1c1ccccc1-c1ccc(OC(F)(F)F)cc1 [ESC1002315]	1.15	95	1.1	97	0	5.91	84.77						
COCCN(C(=O)c1ccccc1F)c1cccc(N(C)Cc2cn(CCOC)cn2)c1 [ESC1002164, 2-fluoro-N-(2-methoxyethyl)-N-[3-[[1-(2-methoxyethyl)imidazol-4-yl]methyl-methylamino]phenyl]benzamide]	> 20	2				5.093	77.951						
CC(C)CN(C(=O)c1ccccc1F)c1cccc(N(C)Cc2ccc(O)nc2)c1 [ESC1002212]	> 20	16				5.576	94.278						
Cc1ccsc1C(=O)N1CCC[C@H]1c1ccccc1-c1ccccc1Cl [ESC1002324]	0.295	99	1	102	0	5.04	85.64						
